Data: US20110033393A1, “Hydrazone Compounds and Their Use” (priority 2009, published 2011)

Target: T1, human TRPM5 ion channel (Homo sapiens, UniProt Q9NZQ8)
T1 sequence (Q9NZQ8 1-1165): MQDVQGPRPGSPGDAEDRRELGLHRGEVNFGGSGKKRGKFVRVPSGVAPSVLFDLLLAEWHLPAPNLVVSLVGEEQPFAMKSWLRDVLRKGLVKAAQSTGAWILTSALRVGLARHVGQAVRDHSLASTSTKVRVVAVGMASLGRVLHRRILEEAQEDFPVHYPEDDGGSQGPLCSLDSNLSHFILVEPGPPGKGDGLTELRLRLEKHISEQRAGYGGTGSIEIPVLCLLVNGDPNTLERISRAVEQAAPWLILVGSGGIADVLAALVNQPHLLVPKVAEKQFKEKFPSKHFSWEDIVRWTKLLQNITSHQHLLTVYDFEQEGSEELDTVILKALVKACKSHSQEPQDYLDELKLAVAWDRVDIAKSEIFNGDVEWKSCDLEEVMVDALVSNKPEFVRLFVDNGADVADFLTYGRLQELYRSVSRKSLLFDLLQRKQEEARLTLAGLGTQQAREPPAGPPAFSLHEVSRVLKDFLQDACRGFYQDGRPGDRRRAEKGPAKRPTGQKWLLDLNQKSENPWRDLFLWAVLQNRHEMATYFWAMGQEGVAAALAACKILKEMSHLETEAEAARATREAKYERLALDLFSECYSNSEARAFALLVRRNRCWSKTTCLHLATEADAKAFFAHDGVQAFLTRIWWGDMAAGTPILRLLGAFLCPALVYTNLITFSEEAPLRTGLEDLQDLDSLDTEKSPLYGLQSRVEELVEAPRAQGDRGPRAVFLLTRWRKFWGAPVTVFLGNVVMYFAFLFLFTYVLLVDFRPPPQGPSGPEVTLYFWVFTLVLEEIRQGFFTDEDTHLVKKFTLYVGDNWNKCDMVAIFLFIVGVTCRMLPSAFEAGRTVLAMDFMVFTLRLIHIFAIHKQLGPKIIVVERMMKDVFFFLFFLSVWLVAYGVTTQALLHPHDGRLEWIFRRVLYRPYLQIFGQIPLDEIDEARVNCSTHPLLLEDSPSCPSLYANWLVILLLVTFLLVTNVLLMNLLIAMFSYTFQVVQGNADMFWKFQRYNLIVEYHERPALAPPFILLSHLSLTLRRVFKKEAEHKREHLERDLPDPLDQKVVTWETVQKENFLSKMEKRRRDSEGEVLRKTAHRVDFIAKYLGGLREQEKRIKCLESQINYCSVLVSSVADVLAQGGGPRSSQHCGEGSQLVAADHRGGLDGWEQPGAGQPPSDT
Test: FLIPR-based assay for membrane potential and calcium mobilization (TRPM5 inhibiting activity)
Assay type: cell-based
Conditions: live cells, 30° C., read-out: hTrpM5 IC50
Description: The activity of compounds of the present invention on human TRPM5 ion channel was measured using the FLIPR-based (fluorescent imaging plate reader) assay for membrane potential and calcium mobilization described in U.S. Patent Application Publication No. 2008/0249189 A1 in live cells, wherein the assay is performed at 30° C. Determinations of affinity and efficacy were derived from measurements of TRPM5 activity over a range of compound concentrations. The concentration range was achieved by 10 serial dilutions (either 2-fold or 3-fold decrements) from a maximum concentration of no greater that 100 μM. Curver fitting was performed on the resulting data to yield concentration-effect functions, from which the half-maximal inhibitory concentration (IC50) was derived for all the tested compounds. The IC50 values were considered to be accurate reflections of affinity between the compounds and TRPM5.
Representative compounds of the present invention have been tested in the FLIPR assay for TRPM5 inhibiting activity, which is described in detail above.

Row | Structure (SMILES) | IC50 [nM]
1 | O=C(N/N=C/c1cc(Cl)c2ncccc2c1)[C@@H]1C[C@H]1c1ccccc1 (relative stereo) [Example 25, trans-N′-((8-Chloroquinolin-6-yl)methylene)-2-phenylcyclopropanecarbohydrazide] | 340
2 | O=C(N/N=C/c1cc(Cl)c2ncccc2c1)[C@@H]1C[C@H]1c1cccc(Cl)c1 (relative stereo) [Example 28, trans-2-(3-Chlorophenyl)-N′-((8-chloroquinolin-6-yl)methylene)cyclopropanecarbohydrazide] | 650
3 | Cc1cc(/C=N/NC(=O)[C@@H]2C[C@H]2c2cccc(Cl)c2)cc2cccnc12 (relative stereo) [Example 29, trans-2-(3-Chlorophenyl)-N′-((8-methylquinolin-6-yl)methylene)cyclopropanecarbohydrazide] | 800
4 | O=C(N/N=C/c1ccc2ncccc2n1)[C@@H]1C[C@H]1c1cccc(Cl)c1 (relative stereo) [Example 31, trans-N′-((1,5-Naphthyridin-2-yl)methylene)-2-(3-chlorophenyl)cyclopropanecarbohydrazide] | ~50000
5 | COc1ccc(/C=N/NC(=O)[C@@H]2C[C@H]2c2ccc3ccccc3n2)cc1OC (relative stereo) [Example 36, trans-N′-(3,4-Dimethoxybenzylidene)-2-(quinolin-2-yl)cyclopropanecarbohydrazide] | 930
6 | COc1ccc(/C=N/NC(=O)[C@@H]2C[C@H]2c2cccc(C)n2)cc1OC (relative stereo) [Example 37, trans-N′-(3,4-Dimethoxybenzylidene)-2-(6-methylpyridin-2-yl)cyclopropanecarbohydrazide] | 3200
7 | COc1ccc(C=NNC(=O)[C@@H]2C[C@H]2c2cnc3ccccc3c2)cc1OC (relative stereo) [Example 38, trans-N′-(3,4-Dimethoxybenzylidene)-2-(quinolin-3-yl)cyclopropanecarbohydrazide] | 610
8 | COc1ccc([C@@H]2C[C@H]2C(=O)N/N=C/c2cc(C)c3ncccc3c2)cn1 (relative stereo) [Example 41, trans-2-(6-Methoxypyridin-3-yl)-N′-((8-methylquinolin-6-yl)methylene)cyclopropanecarbohydrazide] | 5000
9 | COc1cccc([C@@H]2C[C@H]2C(=O)N/N=C/c2cc(C)c3ncccc3c2)n1 (relative stereo) [Example 42, trans-2-(6-Methoxypyridin-2-yl)-N′-((8-methylquinolin-6-yl)methylene)cyclopropanecarbohydrazide] | 410
10 | Cc1cc(C=NNC(=O)C2CC2c2ccccc2)cc2cccnc12 (single isomer, unassigned) [11 (E1), trans-N′-((8-Methylquinolin-6-yl)methylene)-2-phenylcyclopropanecarbohydrazide, E1 enantiomer] | > 10000
11 | Cc1cc(C=NNC(=O)C2CC2c2ccccc2)cc2cccnc12 (single isomer, unassigned) [11 (E2), trans-N′-((8-Methylquinolin-6-yl)methylene)-2-phenylcyclopropanecarbohydrazide, E2 enantiomer] | 240
12 | COc1cc(/C=N/NC(=O)CCn2cc(C)c3ccccc32)ccc1OCCCO [Example 4, N′-(4-(3-Hydroxypropoxy)-3-methoxybenzylidene)-3-(3-methyl-1H-indol-1-yl)propanehydrazide] | 500
13 | COc1ccc(/C=N/N(C)C(=O)C2CC2c2ccccc2)cc1OC (stereo not drawn) [Example 9, trans-N′-(3,4-Dimethoxybenzylidene)-N-methyl-2-phenylcyclopropanecarbohydrazide] | 5000
14 | COc1ccc(/C=N/NC(=O)CCn2cc(C)c3cccnc32)cc1OC [Example 14, N′-(3,4-Dimethoxybenzylidene)-3-(3-methyl-1H-pyrrolo[2,3-b]pyridin-1-yl)propanehydrazide] | 680
15 | COc1ccc(/C=N/NC(=O)CCn2cnc3c(C)cccc32)cc1OC [Example 17, N′-(3,4-Dimethoxybenzylidene)-3-(4-methyl-1H-benzo[d]imidazol-1-yl)propanehydrazide] | 2400

The next compounds have a lower IC50 than those just listed; values first:

Row | IC50 [nM] | Structure (SMILES)
16 | 37 | COc1ccc(/C=N/NC(=O)[C@@H]2C[C@H]2c2cccc(C(F)(F)F)c2)cc1OC (relative stereo) [Example 6, trans-N′-(3,4-Dimethoxybenzylidene)-2-(3-(trifluoromethyl)phenyl)cyclopropanecarbohydrazide]
17 | 90 | COc1cc(/C=N/NC(=O)[C@@H]2C[C@H]2c2ccccc2)cc2cccnc12 (relative stereo) [Example 22, trans-N′-((8-Methoxyquinolin-6-yl)methylene)-2-phenylcyclopropanecarbohydrazide]
18 | 55 | COc1ccc(/C=N/NC(=O)C(C)Sc2cccc(Cl)c2)cc1OC (stereo not shown) [Example 1, 2-(3-Chlorophenylthio)-N′-(3,4-dimethoxybenzylidene)propanehydrazide]
19 | 51 | COc1ccc(/C=N/NC(=O)CCc2cn(C)c3ccccc23)cc1OC [Example 2, N′-(3,4-dimethoxybenzylidene)-3-(1-methyl-1H-indol-3-yl)propanehydrazide]
20 | 30 | Cc1cn(CCC(=O)N/N=C/c2cc(C)c3ncccc3c2)c2ccccc12 [Example 3, 3-(3-Methyl-1H-indol-1-yl)-N′-((8-methylquinolin-6-yl)methylene)propanehydrazide]
21 | 51 | COc1ccc(/C=N/NC(=O)NCCc2ccc(Cl)cc2)cc1OC [Example 5, N-(4-Chlorophenethyl)-2-(3,4-dimethoxybenzylidene)hydrazinecarboxamide]
22 | 1.8 | COc1ccc(/C=N/NC(=O)CCn2cc(C)c3c(C)cccc32)cc1OC [Example 7, N′-(3,4-Dimethoxybenzylidene)-3-(3,4-dimethyl-1H-indol-1-yl)propanehydrazide]
23 | 3 | COc1cc(F)c(/C=N/NC(=O)CCn2cc(C)c3c(C)cccc32)cc1OC [Example 8, 3-(3,4-Dimethyl-1H-indol-1-yl)-N′-(2-fluoro-4,5-dimethoxybenzylidene)propanehydrazide]
24 | 80 | COc1cc(/C=N/NC(=O)CCn2cc(C)c3c(C)cccc32)ccc1OCc1ccccc1 [Example 12, N′-(4-(Benzyloxy)-3-methoxybenzylidene)-3-(3,4-dimethyl-1H-indol-1-yl)propanehydrazide]
25 | 66 | COc1cc(/C=N/NC(=O)CCn2cc(C)c3c(C)cccc32)ccc1OCc1ccccn1 [Example 13, 3-(3,4-Dimethyl-1H-indol-1-yl)-N′-(3-methoxy-4-(pyridin-2-ylmethoxy)benzylidene)propanehydrazide]
26 | 38 | COc1cc(/C=N/NC(=O)CCn2cc(C)c3c(C)cccc32)cc(Cl)c1OC [Example 15, N′-(3-Chloro-4,5-dimethoxybenzylidene)-3-(3,4-dimethyl-1H-indol-1-yl)propanehydrazide]
27 | 53 | COc1cc(/C=N/NC(=O)CCn2cc(C)c3c(C)cccc32)ccc1OCc1cccnc1 [Example 16, 3-(3,4-Dimethyl-1H-indol-1-yl)-N′-(3-methoxy-4-(pyridin-3-ylmethoxy)benzylidene)propanehydrazide]
28 | 46 | COc1cc(/C=N/NC(=O)CCn2cc(C)c3c(C)cccc32)ccc1OCc1ccncc1 [Example 18, 3-(3,4-Dimethyl-1H-indol-1-yl)-N′-(3-methoxy-4-(pyridin-4-ylmethoxy)benzylidene)propanehydrazide]
